What all share (assay): NCI-60 cell line screen, 48 h
For assay [1], the system named is EKVX.
Assay [2] relates to HCT-116.
Assay [3] relates to HCT-15.
Assay [4] has as its system HOP-92.
Assay [5] relates to HT-29.
Assay [6] concerns KM12.
The test system of assay [7] is LXFL 529.
In assay [8] the test system is MOLT-4.
The test system of assay [9] is Malme-3M.
In assay [10] the test system is NCI-H460.
Assay [11] has as its system OVCAR-3.
The subject of assay [12] is OVCAR-5.
For assay [13], the system named is SF-295.
Assay [14] relates to SK-MEL-2.
The test system of assay [15] is UACC-257.
For assay [16], the system named is UACC-62.
Assay [17] concerns UO-31.
Assay [18] concerns CAKI-1.

Structures are written as SMILES.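 Dose response: 5 concentrations. Exposure: 48 h. Format: 96-well plates. Endpoint: linear interpolation; highest concentration if not reached. Here, GI50 denotes the concentration required for 50% inhibition of growth.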 Active and inactive are the calls of the source. No stated cut-off is given here; in the data, active = GI50 up to about 1.1 µM and inactive = higher. Where only a bound is given, the exact number is not on record here.

For the compound `C[C@@H]1C[C@@H]([C@H](O)CC2CC(=O)NC(=O)C2)C(=O)[C@@H](C)C1` [CYCLOHEXIMIDE], the GI50 in assay [1] was 0.0933 µM (active); in assay [2], 0.0738 µM (active); in [3], 0.0433 µM; in [4] it was 0.0366 µM (active); in assay [5], 0.0718 µM (active); in assay [6], 0.0202 µM (active). For the same compound, the GI50 was 0.0187 µM (active) in assay [7]; < 0.0176 µM (active) in assay [8]; 0.0889 µM (active) in assay [9]; 0.122 µM (active) in assay [10]; 0.131 µM (active) in [11]; 0.141 µM (active) in assay [12]. Also, the GI50 in assay [13] was 0.142 µM (active); in [14], 0.106 µM (active); in [15], 0.0912 µM (active); in assay [16], 0.118 µM (active); in [17], 0.0287 µM (active).

On to `CCNC(=O)COc1ccc(Cl)c(C)c1`, for which the GI50 in assay [18] was > 100 µM (inactive); in assay [2] it was > 100 µM (inactive); in assay [3], > 100 µM; in assay [4], > 100 µM (inactive); in [5] it was > 100 µM (inactive); in assay [6], > 100 µM (inactive). Besides, the GI50 in [7], in assay [8], in [9], in [10], in [11] and in assay [12] was > 100 µM (inactive) each time. The GI50 in assay [13], in [14], in assay [15], in assay [16] and in assay [17] was > 100 µM (inactive) throughout.

For the compound `O=C(O)c1c([N+](=O)[O-])cc(C(F)(F)F)cc1[N+](=O)[O-]`, the GI50 was > 100 µM (inactive) in [18]; > 100 µM (inactive) in [1]; > 100 µM (inactive) in [2]; > 100 µM in assay [3]; 74.6 µM (inactive) in [4]; > 100 µM (inactive) in assay [5]. Further, the GI50 in assay [6], in [7], in [8], in [10], in [11] and in assay [12] was > 100 µM (inactive) each time. In addition, the GI50 in [13], in [14], in assay [15] and in [17] was > 100 µM (inactive) throughout.

Turning to `CC(=O)N1[C@H](C(=O)O)CS[C@H]1c1ccc(F)cc1`, the GI50 in assay [18] is > 100 µM (inactive); in [2], 29.1 µM (inactive); in [3] it was > 100 µM; in [4], > 100 µM (inactive); in assay [5], > 100 µM (inactive); in [7] it was > 100 µM (inactive). For the same compound, the GI50 in [8], in assay [9], in assay [10], in assay [11], in assay [12] and in assay [13] was > 100 µM (inactive) each time. The GI50 in [15] and in [17] was > 100 µM (inactive) throughout.

As for `Nc1nc(Cl)cc(NCCCCCCCCNc2cc(Cl)nc(N)n2)n1`, the GI50 is 8.81 µM (inactive) in assay [18]; > 100 µM (inactive) in assay [1]; 2.39 µM (inactive) in assay [2]; 8.59 µM in [3]; 7.76 µM (inactive) in assay [4]; 12.3 µM (inactive) in assay [5]. The GI50 was 14.7 µM (inactive) in assay [6]; 1.86 µM (inactive) in assay [7]; 31.3 µM (inactive) in assay [10]; 3.2 µM (inactive) in assay [11]; 1.48 µM (inactive) in [13]; 13.5 µM (inactive) in assay [14]. Further, the GI50 in [15] is 2.91 µM (inactive); in assay [16], 1.36 µM (inactive); in [17], 22 µM (inactive).

As for `CC(C)(O)[C@@H]1CC[C@@]2(C)CCCC(O)C2(O)C1` (some centres undefined), the GI50 in [18] is > 100 µM (inactive); in [2] it was > 100 µM (inactive); in assay [3], > 100 µM; in assay [4], > 100 µM (inactive); in [5] it was > 100 µM (inactive); in assay [6] it was > 100 µM (inactive). Also, the GI50 in [7], in assay [8], in assay [9], in assay [10], in [11] and in [12] was > 100 µM (inactive) each time. Also, the GI50 in [13], in [14], in assay [15], in assay [16] and in assay [17] was > 100 µM (inactive) throughout.

For `CC(CCCOC(c1ccccc1)(c1ccccc1)c1ccccc1)OC(=O)Nc1ccccc1` (centres undefined), the GI50 in assay [18] was 13.5 µM (inactive); in assay [2], 11.1 µM (inactive); in [3], 14.4 µM; in assay [4], 10 µM (inactive); in assay [5] it was 13.1 µM (inactive); in assay [6] it was 14 µM (inactive). Also, the GI50 was 13.2 µM (inactive) in [7]; 4.55 µM (inactive) in assay [8]; 15.8 µM (inactive) in assay [9]; 11.7 µM (inactive) in assay [10]; 14 µM (inactive) in assay [11]; 13.7 µM (inactive) in [12]. Further, the GI50 in assay [13] was 12.7 µM (inactive); in assay [15] it was 15.3 µM (inactive); in assay [16] it was 12.8 µM (inactive); in assay [17], 11.6 µM (inactive).

On to `O=C1OC(=O)C23CSCC12C1C=CC3O1` (centres undefined), for which the GI50 in assay [18] was > 100 µM (inactive); in assay [1], > 100 µM (inactive); in assay [2], > 100 µM (inactive); in assay [3], > 100 µM; in [5], > 100 µM (inactive); in assay [6], > 100 µM (inactive). The GI50 in [7], in [8], in assay [9], in assay [10], in [11] and in assay [12] was > 100 µM (inactive) each time. Moreover, the GI50 in assay [13], in assay [14], in assay [15], in [16] and in assay [17] was > 100 µM (inactive) each time.

For the compound `CCCCCCCCOCC(O)COC` (centres undefined), the GI50 in assay [18] was > 100 µM (inactive); in [2], > 100 µM (inactive); in assay [3], > 100 µM; in [4], 82.6 µM (inactive); in [5], > 100 µM (inactive); in [7], > 100 µM (inactive). Moreover, the GI50 in assay [8] is > 100 µM (inactive); in [9], > 100 µM (inactive); in assay [10] it was > 100 µM (inactive); in assay [11], 94.6 µM (inactive); in assay [12], > 100 µM (inactive); in assay [13], > 100 µM (inactive). Further, the figures for the GI50 in assay [15], in assay [16] and in assay [17] were 69.7 µM (inactive), > 100 µM (inactive) and > 100 µM (inactive), respectively.

Consider `C/C(CN1C(=O)c2ccccc2C1=O)=N\NS(=O)(=O)c1cccc([N+](=O)[O-])c1`, for which the GI50 in assay [18] is > 100 µM (inactive); in assay [1], > 100 µM (inactive); in assay [2] it was > 100 µM (inactive); in assay [3] it was > 100 µM; in assay [5], > 100 µM (inactive); in assay [6], > 100 µM (inactive). The GI50 in assay [7], in assay [8], in assay [9], in assay [10], in assay [11] and in [12] was > 100 µM (inactive) throughout. Also, the GI50 in assay [13], in assay [14], in assay [15], in [16] and in [17] was > 100 µM (inactive) each time.

`O=C(/C(=C/c1ccc(Cl)cc1)c1ccccc1)c1ccccc1`: the GI50 in [1] is 26.5 µM (inactive); in [2] it was 13.6 µM (inactive); in [3] it was 15.4 µM; in assay [4] it was 13.9 µM (inactive); in assay [5] it was 18 µM (inactive); in [6] it was 16.9 µM (inactive). Besides, the GI50 in [7] was 15.9 µM (inactive); in [8] it was 17.8 µM (inactive); in assay [9], 17 µM (inactive); in assay [10], 17.7 µM (inactive); in assay [12], 22.6 µM (inactive); in [13], 18.8 µM (inactive). Moreover, the GI50 in assay [14] was 20.4 µM (inactive); in [15], 13.6 µM (inactive); in [16] it was 15.6 µM (inactive); in assay [17], 27 µM (inactive).

On to `O=C1O[C@H](c2ccccc2)[C@@H]2CC3(CCN12)OCCO3`, for which the GI50 in [18] was > 100 µM (inactive); in assay [1], > 100 µM (inactive); in assay [2], > 100 µM (inactive); in assay [3], > 100 µM; in assay [4], 69.2 µM (inactive); in assay [5] it was > 100 µM (inactive). Also, the GI50 in [6], in [7], in assay [8], in assay [10], in assay [11] and in assay [12] was > 100 µM (inactive) in each case. Besides, the GI50 in assay [13], in assay [14], in assay [15], in [16] and in assay [17] was > 100 µM (inactive) in each case.

On to `COc1ccc(/C(C#N)=C(/N)SCc2ccccc2Cl)cc1`, for which the GI50 was 21.2 µM (inactive) in assay [1]; 18.8 µM (inactive) in assay [2]; 17.8 µM (inactive) in assay [4]; 17.5 µM (inactive) in assay [5]; > 10 µM (inactive) in [6]; 14.4 µM (inactive) in assay [7]. Moreover, the GI50 in assay [8] is 19.1 µM (inactive); in assay [9], 17.5 µM (inactive); in [11], 11.1 µM (inactive); in assay [12], 18.2 µM (inactive); in assay [13] it was 17.1 µM (inactive); in assay [14], 16.5 µM (inactive). The GI50 in assay [15] was 16.7 µM (inactive); in [16] it was 11.9 µM (inactive); in [17] it was > 10 µM (inactive).

The values above are taken from ChEMBL document CHEMBL1201862, “PubChem BioAssay data set” (2004).
